PubChem BioAssay AID256 (DTP/NCI, 2004)
Several values for one entry are separate records, joined by “and”; a condition that tells them apart may be missing. Equal values may be shown once. Inconclusive results and toxic doses are left out. The calls were made as follows: active = survival T/C of 150% or more; inactive = T/C below 125% in these data.

System: CD2F1 mice, L1210 leukemia ip, survival T/C
Assay: NCI In Vivo Anticancer Drug Screen. Data for tumor model L1210 Leukemia (intraperitoneal) in CD2F1 (CDF1) mice
Conditions: higher = longer survival
In short: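 Transplantable tumor in mice; compound-treated vs vehicle-treated groups. Read-out = treated/control ratio of the measured endpoint.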

[1] = endpoint: mean survival time, dose: 12.5 mg/kg/injection, schedule: Q01DX009 (ip), vehicle: saline with Tween-80
[2] = endpoint: mean survival time, dose: 25.0 mg/kg/injection, schedule: Q01DX009 (ip), vehicle: saline with Tween-80
[3] = endpoint: mean survival time, dose: 50.0 mg/kg/injection, schedule: Q01DX009 (ip), vehicle: saline with Tween-80
[4] = endpoint: mean survival time, dose: 100.0 mg/kg/injection, schedule: Q01DX009 (ip), vehicle: saline with Tween-80
[5] = endpoint: mean survival time, dose: 200.0 mg/kg/injection, schedule: Q01DX009 (ip), vehicle: saline with Tween-80
[6] = endpoint: mean survival time, dose: 400.0 mg/kg/injection, schedule: Q01DX009 (ip), vehicle: saline with Tween-80
[7] = endpoint: mean survival time, dose: 100.0 mg/kg/injection, schedule: Q01DX001 (ip), vehicle: saline
[8] = endpoint: mean survival time, dose: 200.0 mg/kg/injection, schedule: Q01DX001 (ip), vehicle: saline
[9] = endpoint: mean survival time, dose: 400.0 mg/kg/injection, schedule: Q01DX001 (ip), vehicle: saline
[10] = endpoint: mean survival time, dose: 100.0 mg/kg/injection, schedule: Q04DX002 (ip), vehicle: saline with Tween-80
[11] = endpoint: mean survival time, dose: 200.0 mg/kg/injection, schedule: Q04DX002 (ip), vehicle: saline with Tween-80
[12] = endpoint: mean survival time, dose: 400.0 mg/kg/injection, schedule: Q04DX002 (ip), vehicle: saline with Tween-80
[13] = endpoint: mean survival time, dose: 100.0 mg/kg/injection, schedule: Q04DX003 (ip), vehicle: saline
[14] = endpoint: mean survival time, dose: 200.0 mg/kg/injection, schedule: Q04DX003 (ip), vehicle: saline
[15] = endpoint: mean survival time, dose: 400.0 mg/kg/injection, schedule: Q04DX003 (ip), vehicle: saline
[16] = endpoint: mean survival time, dose: 100.0 mg/kg/injection, schedule: Q04DX003 (ip), vehicle: saline with Tween-80
[17] = endpoint: mean survival time, dose: 200.0 mg/kg/injection, schedule: Q04DX003 (ip), vehicle: saline with Tween-80
[18] = endpoint: mean survival time, dose: 400.0 mg/kg/injection, schedule: Q04DX003 (ip), vehicle: saline with Tween-80

Measured: T/C

CN(C)P(=O)(Oc1ccccc1)N(C)C
inactive: [1] 98 % of control and 100 % of control | [2] 95 % of control and 101 % of control | [3] 89 % of control and 96 % of control | [4] 94 % of control and 101 % of control | [5] 95 % of control and 96 % of control | [6] 93 % of control and 96 % of control

COc1cc([C@@H]2c3cc4c(cc3[C@H](OC(C)=O)[C@H]3COC(=O)[C@@H]23)OCO4)cc(OC)c1OC
inactive: endpoint: mean survival time, dose: 100.0 mg/kg/injection, schedule: Q01DX009 (ip), vehicle: saline sonified 88 % of control

CCCN(CCC)S(=O)(=O)c1ccc(NC(=O)OC(CC)c2ccco2)cc1 (configuration not stated)
inactive: [7] 94 % of control | [8] 95 % of control | [9] 94 % of control

N#CC/C(=N\Nc1ccc([N+](=O)[O-])cc1[N+](=O)[O-])c1ccccc1
inactive: endpoint: mean survival time, dose: 100.0 mg/kg/injection, schedule: Q04DX003 (ip), vehicle: saline sonified 100 % of control | endpoint: mean survival time, dose: 200.0 mg/kg/injection, schedule: Q04DX003 (ip), vehicle: saline sonified 100 % of control | endpoint: mean survival time, dose: 400.0 mg/kg/injection, schedule: Q04DX003 (ip), vehicle: saline sonified 97 % of control

CCCCCOCC
inactive: [10] 102 % of control | [11] 98 % of control | [12] 98 % of control

CC(=O)OCC1OC2OC(C)(OC(C)(C)C)OC2C(OC(C)=O)C1OC(C)=O (configuration not stated)
inactive: endpoint: mean survival time, dose: 12.5 mg/kg/injection, schedule: Q01DX009 (ip), vehicle: other 97 % of control | endpoint: mean survival time, dose: 25.0 mg/kg/injection, schedule: Q01DX009 (ip), vehicle: other 95 % of control | endpoint: mean survival time, dose: 50.0 mg/kg/injection, schedule: Q01DX009 (ip), vehicle: other 97 % of control | endpoint: mean survival time, dose: 100.0 mg/kg/injection, schedule: Q01DX009 (ip), vehicle: other 103 % of control | endpoint: mean survival time, dose: 200.0 mg/kg/injection, schedule: Q01DX009 (ip), vehicle: other 98 % of control

NC(CS(=O)(=O)O)c1ccccc1 (configuration not stated)
inactive: [7] 110 % of control | [13] 96 % of control | [8] 110 % of control | [14] 98 % of control | [9] 110 % of control | [15] 97 % of control

N#CCCC(CCC#N)c1ccccc1
inactive: [4] 107 % of control | [16] 106 % of control | [5] 103 % of control | [17] 93 % of control | [6] 105 % of control | [18] 104 % of control

CC1=NOC(=O)C1C(C)(C)C1C(=O)ON=C1C (configuration not stated)
inactive: [4] 107 % of control | [5] 104 % of control | [6] 104 % of control

CCCCCCC(=O)/C=C\C(C)=C\c1ccccc1
inactive: endpoint: mean survival time, dose: 100.0 mg/kg/injection, schedule: Q01DX001 (ip), vehicle: saline with Tween-80 94 % of control | [4] 98 % of control | endpoint: mean survival time, dose: 200.0 mg/kg/injection, schedule: Q01DX001 (ip), vehicle: saline with Tween-80 100 % of control | [5] 98 % of control | endpoint: mean survival time, dose: 400.0 mg/kg/injection, schedule: Q01DX001 (ip), vehicle: saline with Tween-80 94 % of control | [6] 98 % of control

[Cl][Pt+2][Cl].[NH-]C1CCCCC1[NH-] (configuration not stated)
inactive: endpoint: mean survival time, dose: 0.39 mg/kg/injection, schedule: Q04DX003 (ip), vehicle: saline with Tween-80 124 % of control | endpoint: mean survival time, dose: 1.56 mg/kg/injection, schedule: Q04DX002 (ip), vehicle: saline 119 % of control and 124 % of control | endpoint: median survival time, dose: 20.0 mg/kg/injection, schedule: Q04DX003 (ip), vehicle: saline 100 % of control

O=C(CCl)NCCCCNC(=O)CCl
inactive: [7] 101 % of control | [8] 98 % of control | [9] 100 % of control

CNC(=O)Nc1nnnc2ccccc12
inactive: [16] 95 % of control

CC#CC(=O)SCCNC(=O)CCNC(=O)CC(C)(C)C
inactive: [1] 101 % of control | [2] 95 % of control | endpoint: mean survival time, dose: 25.0 mg/kg/injection, schedule: Q04DX003 (ip), vehicle: saline with Tween-80 106 % of control | [3] 98 % of control | endpoint: mean survival time, dose: 50.0 mg/kg/injection, schedule: Q04DX003 (ip), vehicle: saline with Tween-80 94 % of control | [4] 88 % of control | [16] 98 % of control

CCN(CC)C(=O)SCCSC(=O)N(CC)CC
inactive: endpoint: mean survival time, dose: 25.0 mg/kg/injection, schedule: Q04DX002 (ip), vehicle: saline with Tween-80 96 % of control | endpoint: mean survival time, dose: 50.0 mg/kg/injection, schedule: Q04DX002 (ip), vehicle: saline with Tween-80 104 % of control | [10] 101 % of control | [11] 91 % of control | [12] 95 % of control

CC(C)COC(=O)c1ccc(NC(=O)Nc2ccccc2Cl)cc1
inactive: [4] 93 % of control | [16] 93 % of control | [5] 89 % of control | [18] 101 % of control

O=C(O)COc1ccc(F)cc1Br
inactive: [10] 93 % of control | [11] 93 % of control | [12] 93 % of control

CCCCCCC(=O)[O][Hg][c]1ccccc1
inactive: endpoint: mean survival time, dose: 9.38 mg/kg/injection, schedule: Q01DX001 (ip), vehicle: saline 105 % of control | endpoint: mean survival time, dose: 18.75 mg/kg/injection, schedule: Q01DX001 (ip), vehicle: saline 100 % of control | endpoint: mean survival time, dose: 37.5 mg/kg/injection, schedule: Q01DX001 (ip), vehicle: saline 103 % of control

C=CCOC(=O)Oc1ccccc1Cl
inactive: [4] 102 % of control | [16] 98 % of control | [17] 95 % of control

[Cl][Pt+2]([Cl])([Cl])[Cl].[NH-]C1CCCCC1.[NH-]C1CCCCC1
inactive: [1] 96 % of control | [2] 91 % of control | [3] 100 % of control | [4] 89 % of control

CC(CN)OS(=O)(=O)O (configuration not stated)
inactive: [3] 100 % of control | endpoint: mean survival time, dose: 50.0 mg/kg/injection, schedule: Q04DX003 (ip), vehicle: saline 103 % of control | [4] 105 % of control | [13] 106 % of control | [5] 101 % of control | [14] 97 % of control | [6] 101 % of control | [15] 105 % of control

NC(=O)c1ccc[n+](Cc2ccccc2)c1
inactive: endpoint: mean survival time, dose: 75.0 mg/kg/injection, schedule: Q01DX001 (ip), vehicle: saline 98 % of control | endpoint: mean survival time, dose: 150.0 mg/kg/injection, schedule: Q01DX001 (ip), vehicle: saline 96 % of control

O=C(O)/C=C\c1ccc(OC(=O)c2ccccc2)cc1
inactive: endpoint: mean survival time, dose: 50.0 mg/kg/injection, schedule: Q01DX009 (ip), vehicle: Klucel (hydroxypropylcellulose) (HPC) 96 % of control | endpoint: mean survival time, dose: 100.0 mg/kg/injection, schedule: Q01DX009 (ip), vehicle: Klucel (hydroxypropylcellulose) (HPC) 93 % of control | endpoint: mean survival time, dose: 200.0 mg/kg/injection, schedule: Q01DX009 (ip), vehicle: Klucel (hydroxypropylcellulose) (HPC) 93 % of control

CCCCCCCCCCCCNC(=O)C[n+]1cccc(C(=O)N(C)C)c1
inactive: endpoint: mean survival time, dose: 5.0 mg/kg/injection, schedule: Q01DX009 (ip), vehicle: saline with Tween-80 114 % of control | endpoint: mean survival time, dose: 10.0 mg/kg/injection, schedule: Q01DX009 (ip), vehicle: saline with Tween-80 97 % of control | endpoint: mean survival time, dose: 20.0 mg/kg/injection, schedule: Q01DX009 (ip), vehicle: saline with Tween-80 98 % of control

CC(=O)Oc1c[nH]c(=O)[nH]c1=O
inactive: endpoint: mean survival time, dose: 12.5 mg/kg/injection, schedule: Q01DX009 (ip), vehicle: distilled water + Tween-80 97 % of control and 112 % of control | endpoint: mean survival time, dose: 25.0 mg/kg/injection, schedule: Q01DX009 (ip), vehicle: distilled water + Tween-80 97 % of control and 98 % of control | endpoint: mean survival time, dose: 50.0 mg/kg/injection, schedule: Q01DX009 (ip), vehicle: distilled water + Tween-80 102 % of control and 110 % of control | endpoint: mean survival time, dose: 100.0 mg/kg/injection, schedule: Q01DX009 (ip), vehicle: distilled water + Tween-80 114 % of control and 105 % of control | endpoint: mean survival time, dose: 200.0 mg/kg/injection, schedule: Q01DX009 (ip), vehicle: distilled water + Tween-80 114 % of control and 105 % of control | endpoint: mean survival time, dose: 400.0 mg/kg/injection, schedule: Q01DX009 (ip), vehicle: distilled water + Tween-80 117 % of control and 124 % of control

N[N+]#COC1C(C(=O)NN)C1C(=O)NN (configuration not stated)
inactive: endpoint: median survival time, dose: 50.0 mg/kg/injection, schedule: Q04DX002 (ip), vehicle: saline with Tween-80 94 % of control | endpoint: median survival time, dose: 100.0 mg/kg/injection, schedule: Q04DX002 (ip), vehicle: saline with Tween-80 105 % of control | endpoint: median survival time, dose: 400.0 mg/kg/injection, schedule: Q04DX002 (ip), vehicle: saline with Tween-80 105 % of control

O=C(O)/C=C\C(=O)Nc1ccccc1NC(=O)/C=C/C(=O)O
inactive: [13] 110 % of control | [14] 99 % of control | [15] 101 % of control

OC1(c2ccccc2)c2ccccc2C(O)(c2ccccc2)c2c1ccc1ccccc21 (configuration not stated)
inactive: [3] 91 % of control | [4] 94 % of control | [5] 91 % of control

CC(c1ccc([N+](=O)[O-])cc1)C(O)c1ccccc1 (configuration not stated)
inactive: [16] 111 % of control | [17] 103 % of control | [18] 102 % of control
